Consider one compound from BindingDB's records for patent US20240409538 (Impact Therapeutics (Shanghai), 2024).

The target of this assay is Ubiquitin carboxyl-terminal hydrolase 1/WD repeat-containing protein 48 (Homo sapiens, UniProt O94782). Briefly: Not found.

Molecules are shown by their SMILES.

Sequence of Ubiquitin carboxyl-terminal hydrolase 1/WD repeat-containing protein 48 (O94782 whole entry): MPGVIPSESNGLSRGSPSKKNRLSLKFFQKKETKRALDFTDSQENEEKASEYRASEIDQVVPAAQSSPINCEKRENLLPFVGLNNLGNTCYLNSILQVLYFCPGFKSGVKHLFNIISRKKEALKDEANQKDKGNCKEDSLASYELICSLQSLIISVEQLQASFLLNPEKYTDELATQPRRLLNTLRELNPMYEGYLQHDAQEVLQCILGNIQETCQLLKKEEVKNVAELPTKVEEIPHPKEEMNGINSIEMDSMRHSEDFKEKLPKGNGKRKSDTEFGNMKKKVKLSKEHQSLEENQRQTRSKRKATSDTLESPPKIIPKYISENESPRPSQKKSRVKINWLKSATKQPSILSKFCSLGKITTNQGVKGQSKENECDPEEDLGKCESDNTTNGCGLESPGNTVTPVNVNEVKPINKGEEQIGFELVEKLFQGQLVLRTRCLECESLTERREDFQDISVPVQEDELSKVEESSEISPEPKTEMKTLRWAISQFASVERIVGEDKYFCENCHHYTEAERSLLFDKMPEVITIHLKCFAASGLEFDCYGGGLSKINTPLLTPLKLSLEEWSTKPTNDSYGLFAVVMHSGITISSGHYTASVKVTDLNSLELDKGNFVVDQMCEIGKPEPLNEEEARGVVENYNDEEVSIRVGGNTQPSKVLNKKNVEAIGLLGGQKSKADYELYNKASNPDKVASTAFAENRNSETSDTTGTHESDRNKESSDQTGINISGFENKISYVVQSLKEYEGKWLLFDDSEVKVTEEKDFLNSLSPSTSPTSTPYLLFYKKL
Sequence of Ubiquitin carboxyl-terminal hydrolase 1/WD repeat-containing protein 48 (Q8TAF3 whole entry, further chain): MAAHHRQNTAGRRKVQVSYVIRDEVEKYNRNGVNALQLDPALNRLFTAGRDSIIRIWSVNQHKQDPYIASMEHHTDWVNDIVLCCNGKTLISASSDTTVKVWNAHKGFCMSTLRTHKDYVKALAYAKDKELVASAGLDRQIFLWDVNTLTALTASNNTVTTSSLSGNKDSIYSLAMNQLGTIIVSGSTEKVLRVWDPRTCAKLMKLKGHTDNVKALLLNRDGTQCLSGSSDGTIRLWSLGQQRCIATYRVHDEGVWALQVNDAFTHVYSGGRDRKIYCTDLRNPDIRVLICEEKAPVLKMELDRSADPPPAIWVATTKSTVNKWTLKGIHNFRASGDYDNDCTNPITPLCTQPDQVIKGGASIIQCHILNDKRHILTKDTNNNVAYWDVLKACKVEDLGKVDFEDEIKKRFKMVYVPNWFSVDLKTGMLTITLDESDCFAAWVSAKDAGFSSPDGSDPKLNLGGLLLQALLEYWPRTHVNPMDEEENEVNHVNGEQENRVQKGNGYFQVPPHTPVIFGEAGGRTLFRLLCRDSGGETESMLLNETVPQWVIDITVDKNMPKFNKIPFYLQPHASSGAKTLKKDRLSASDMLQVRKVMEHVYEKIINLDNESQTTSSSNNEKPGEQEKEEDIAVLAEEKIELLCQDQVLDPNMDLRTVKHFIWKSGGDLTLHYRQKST

One may read the IC50 as the concentration at which inhibition is half-maximal. A lower IC50 goes with greater potency in that assay. As to `COc1ncnc(OC)c1-c1nc2c(Cc3ccc(-c4nc(C(F)(F)F)cn4C)cc3)cccn2n1` [US20240409538, Example 27], the IC50 is 77.5 nM.
